Data published in patent US8552002B2 (Novartis AG, priority 2004, dated 2013).

Experiments:
Assay type in all cases: biochemical
[1] = biological target: T1, FGFR3 (K650E) (Homo sapiens, UniProt P22607, K650E); assay: Recombinant GST-FGFR-3-K650E tyrosine kinase assay (33P into poly(Glu,Tyr)); conditions: 10 μM; Examples 1 to 169; read-out: FGFR3 (K650E) inhibition at 10 μM
T1 construct: amino acids 411-806 of the cytoplasmic domain of human FGFR-3, N-terminally fused to GST; made in house; host or cells: Sf9 insect cells (baculovirus)
T1 sequence (P22607 411-806 K650E): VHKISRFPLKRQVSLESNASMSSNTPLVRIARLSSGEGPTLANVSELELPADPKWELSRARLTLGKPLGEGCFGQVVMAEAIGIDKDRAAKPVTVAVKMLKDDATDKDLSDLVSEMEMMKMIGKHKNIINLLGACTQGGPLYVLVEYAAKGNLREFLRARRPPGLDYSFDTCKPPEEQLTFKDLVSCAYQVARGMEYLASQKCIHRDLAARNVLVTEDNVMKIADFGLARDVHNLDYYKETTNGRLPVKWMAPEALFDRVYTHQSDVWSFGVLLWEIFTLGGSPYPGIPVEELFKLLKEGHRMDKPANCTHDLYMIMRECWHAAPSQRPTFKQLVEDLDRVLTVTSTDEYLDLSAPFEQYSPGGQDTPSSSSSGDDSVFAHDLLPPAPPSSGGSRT

[2] = biological target: T2, Tek (Homo sapiens, UniProt Q02763); assay: Recombinant GST-Tek (Tie-2) tyrosine kinase assay (33P into poly(Glu,Tyr)); conditions: Examples 1 to 169
T2 construct: amino acids 773-1124 of the cytoplasmic kinase domain of human Tek, N-terminally fused to GST; made in house; host or cells: Sf9 insect cells (baculovirus)
T2 sequence (Q02763 773-1124): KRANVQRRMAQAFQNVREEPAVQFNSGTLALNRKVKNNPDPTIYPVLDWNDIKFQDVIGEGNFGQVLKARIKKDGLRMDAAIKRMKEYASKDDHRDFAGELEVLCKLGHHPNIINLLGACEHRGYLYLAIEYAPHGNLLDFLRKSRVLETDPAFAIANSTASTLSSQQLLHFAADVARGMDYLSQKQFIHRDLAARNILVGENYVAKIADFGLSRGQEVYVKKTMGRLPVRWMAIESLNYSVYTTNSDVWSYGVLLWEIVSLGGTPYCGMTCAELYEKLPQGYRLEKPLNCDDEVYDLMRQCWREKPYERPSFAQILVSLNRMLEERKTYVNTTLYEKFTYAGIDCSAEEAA
Procedure, shortened: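 Read-out is filter-bound 33P in poly(Glu,Tyr) 4:1 (10 μg/mL) after 30 min at ambient temperature with 4.0 μM ATP. Enzyme: 150 ng human GST-Tek (aa 773-1124) from insect cells, in Tris pH 7.5 with Mn2+/Mg2+ and vanadate. IC50 fitted linearly over four concentrations, usually 0.01-10 μM.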

[3] = biological target: T3, KDR (Homo sapiens, UniProt P35968); assay: Inhibitory activity against KDR (VEGF-R2), in vitro data of Examples 170 and 207; conditions: 10 μM; Examples 1 to 169; read-out: KDR inhibition at 10 μM
T3 construct: expressed in transfected cells; host or cells: CHO cells
T3 sequence (P35968 20-1356): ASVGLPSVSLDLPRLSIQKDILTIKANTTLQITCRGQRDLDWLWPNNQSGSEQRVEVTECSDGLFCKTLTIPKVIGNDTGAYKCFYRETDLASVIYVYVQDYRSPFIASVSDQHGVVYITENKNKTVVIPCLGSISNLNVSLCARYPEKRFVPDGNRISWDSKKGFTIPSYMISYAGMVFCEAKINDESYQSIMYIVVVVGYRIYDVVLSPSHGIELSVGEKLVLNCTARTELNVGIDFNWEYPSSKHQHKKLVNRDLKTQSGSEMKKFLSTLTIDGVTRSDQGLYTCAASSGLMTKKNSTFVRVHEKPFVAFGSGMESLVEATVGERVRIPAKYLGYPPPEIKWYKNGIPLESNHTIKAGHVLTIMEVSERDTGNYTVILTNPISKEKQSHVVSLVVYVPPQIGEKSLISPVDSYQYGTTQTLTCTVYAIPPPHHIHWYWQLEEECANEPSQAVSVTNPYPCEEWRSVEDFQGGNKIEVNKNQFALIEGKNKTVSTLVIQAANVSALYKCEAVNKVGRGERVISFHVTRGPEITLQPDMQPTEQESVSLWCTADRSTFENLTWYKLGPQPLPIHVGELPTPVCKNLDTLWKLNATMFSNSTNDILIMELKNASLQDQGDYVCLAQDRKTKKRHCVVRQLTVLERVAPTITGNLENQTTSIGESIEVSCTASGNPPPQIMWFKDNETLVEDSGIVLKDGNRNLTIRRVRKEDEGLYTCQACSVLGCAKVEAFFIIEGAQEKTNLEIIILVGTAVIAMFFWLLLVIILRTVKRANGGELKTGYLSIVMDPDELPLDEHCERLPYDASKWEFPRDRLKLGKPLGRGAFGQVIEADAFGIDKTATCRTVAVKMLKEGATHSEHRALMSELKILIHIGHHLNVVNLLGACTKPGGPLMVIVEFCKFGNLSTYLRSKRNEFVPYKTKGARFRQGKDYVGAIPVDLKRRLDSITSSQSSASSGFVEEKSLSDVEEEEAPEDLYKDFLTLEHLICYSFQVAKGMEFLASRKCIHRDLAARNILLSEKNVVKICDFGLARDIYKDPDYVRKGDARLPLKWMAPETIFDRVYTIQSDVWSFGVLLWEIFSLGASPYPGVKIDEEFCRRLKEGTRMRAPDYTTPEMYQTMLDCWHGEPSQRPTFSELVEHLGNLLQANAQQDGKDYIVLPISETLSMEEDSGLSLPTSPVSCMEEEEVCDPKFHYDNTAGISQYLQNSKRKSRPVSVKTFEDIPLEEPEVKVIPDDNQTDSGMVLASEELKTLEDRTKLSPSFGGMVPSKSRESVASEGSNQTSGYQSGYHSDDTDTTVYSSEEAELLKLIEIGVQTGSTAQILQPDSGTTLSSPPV
Procedure, shortened: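 KDR tyrosine phosphorylation detected by luminescence after overnight 4° C capture of 20 μg lysate protein with PY20:AP antibody. Lysates came from cells given compound for 2 h at 37° C, then final 20 ng/ml VEGF for 5 min; compound-free medium as control.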

Row | SMILES | inhibition at 10 µM [1] [%] | inhibition at 10 µM [2] [%] | inhibition at 10 µM [3] [%]
1 | CCN(CC)c1ccc(Nc2cc(NC(=O)Nc3c(Cl)cccc3Cl)ncn2)cc1 [Example 107, 1-(2,6-Dichloro-phenyl)-3-[6-(4-diethylamino-phenylamino)-pyrimidin-4-yl]-urea] | 27 to 100 | 12 to 100 | 67 to 100
2 | Cc1cc(C)cc(NC(=O)Nc2cc(Nc3cccc(N4CCN(C)CC4)c3)ncn2)c1 [Example 23, 1-(3,5-Dimethyl-Phenyl)-3-{6-[3-(4-methyl-piperazin-1-yl)-phenyl-amino]-pyrimidin-4-yl}-urea] | 27 to 100 | 12 to 100 | 67 to 100
3 | COc1ccc(NC(=O)Nc2cc(Nc3cccc(N4CCN(C)CC4)c3)ncn2)cc1Cl [Example 25, 1-(3-Chloro-4-methoxy-phenyl)-3-{6-[3-(4-methyl-piperazin-1-yl)-phenyl-amino]-pyrimidin-4-yl}-urea] | 27 to 100 | 12 to 100 | 67 to 100
4 | CCN(CC)CCCOc1ccc(Nc2cc(NC(=O)Nc3ccccc3Cl)ncn2)cc1 [Example 102, 1-(2-Chloro-phenyl)-3-{6-[4-(3-diethylamino-propoxy)-phenylamino]-pyrimidin-4-yl}-urea] | 27 to 100 | 12 to 100 | 67 to 100
5 | COc1cc(NC(=O)Nc2cc(Nc3ccc(N4CCN(C)CC4)cc3)ncn2)cc(OC)c1OC [Example 14, 1-{6-[4-(4-Methyl-piperazin-1-yl)-phenylamino]-pyrimidin-4-yl}-3-(3,4,5-trimethoxy-phenyl)-urea] | 27 to 100 | 12 to 100 | 67 to 100
6 | COc1cc(NC(=O)N(Cc2cccs2)c2cc(Nc3ccc(N4CCN(C)CC4)cc3)ncn2)c(Cl)c(OC)c1 [Example 56, 3-(2-Chloro-3,5-dimethoxy-phenyl)-1-{6-[4-(4-methyl-piperazin-1-yl)-phenylamino]-pyrimidin-4-yl}-1-thiophen-2-ylmethyl-urea] | 27 to 100 | 12 to 100 | 67 to 100
7 | O=C(Nc1cc(Nc2cccc(Cl)c2)ncn1)Nc1ccccc1Br [Example 129, 1-(2-Bromo-phenyl)-3-[6-(3-chloro-phenylamino)-pyrimidin-4-yl]-urea] | 27 to 100 | 12 to 100 | 67 to 100
8 | CNc1cc(NC(=O)Nc2cc(OC)cc(OC)c2Cl)ncn1 [Example 38, 1-(2-Chloro-3,5-dimethoxy-phenyl)-3-(6-methylamino-pyrimidin-4-yl)-urea] | 27 to 100 | 12 to 100 | 67 to 100
9 | O=C(Nc1cc(Nc2ccc(F)cc2)ncn1)Nc1c(Cl)cccc1Cl [Example 115, 1-(2,6-Dichloro-phenyl)-3-[6-(4-fluoro-phenylamino)-pyrimidin-4-yl]-urea] | 27 to 100 | 12 to 100 | 67 to 100
10 | CN(C)c1cccc(Nc2cc(N(C)C(=O)Nc3c(Cl)cccc3Cl)ncn2)c1 [Example 120, 3-(2,6-Dichloro-phenyl)-1-[6-(3-dimethylamino-phenylamino)-pyrimidin-4-yl]-1-methyl-urea] | 27 to 100 | 12 to 100 | 67 to 100
11 | COc1cc(NC(=O)Nc2cc(Nc3cccc(OCCN4CCOCC4)c3)ncn2)c(Cl)c(OC)c1 [Example 45, 1-(2-Chloro-3,5-dimethoxy-phenyl)-3-{6-[3-(2-morpholin-4-yl-ethoxy)-phenylamino]-pyrimidin-4-yl}-urea] | 27 to 100 | 12 to 100 | 67 to 100
12 | Cc1cccc(C)c1NC(=O)Nc1cc(Nc2cccc(Cl)c2)ncn1 [Example 140, 1-[6-(3-Chloro-phenylamino)-pyrimidin-4-yl]-3-(2,6-dimethyl-phenyl)-urea] | 27 to 100 | 12 to 100 | 67 to 100
13 | COc1cccc(NC(=O)Nc2cc(Nc3cccc(Cl)c3)ncn2)c1 [Example 131, 1-[6-(3-Chloro-phenylamino)-pyrimidin-4-yl]-3-(3-methoxy-Phenyl)-urea] | 27 to 100 | 12 to 100 | 67 to 100
